Numbered stars: 1 amine (or outer) side, 2 acyl side, 3 side chain; on linkers, the order of the positions; unused ones are H or OH. Bridge positions count the residues as written; N and C are the ends. Square brackets hold non-standard residues; d marks the D form. Peptide text beside a SMILES is read from it. * marks the point of attachment. C20 diacid = O=C(O)CCCCCCCCCCCCCCCCCCC(=O)*; γGlu = O=C(O)[C@H](CCC(=O)[*:2])N[*:1]; Hyp = O=C(O)[C@@H]1C[C@@H](O)CN1
Columns and labels:
hAMY3 receptor = molecular target: T1, hAMY3 receptor (Homo sapiens, UniProt O60896+P30988); assay: cAMP assay for in vitro receptor activation, hAMY3-R; format: cell-based; conditions: cAMP assay, hAMY3 receptor; read-out: hAMY3R EC50
T1 sequence (P30988 25-474): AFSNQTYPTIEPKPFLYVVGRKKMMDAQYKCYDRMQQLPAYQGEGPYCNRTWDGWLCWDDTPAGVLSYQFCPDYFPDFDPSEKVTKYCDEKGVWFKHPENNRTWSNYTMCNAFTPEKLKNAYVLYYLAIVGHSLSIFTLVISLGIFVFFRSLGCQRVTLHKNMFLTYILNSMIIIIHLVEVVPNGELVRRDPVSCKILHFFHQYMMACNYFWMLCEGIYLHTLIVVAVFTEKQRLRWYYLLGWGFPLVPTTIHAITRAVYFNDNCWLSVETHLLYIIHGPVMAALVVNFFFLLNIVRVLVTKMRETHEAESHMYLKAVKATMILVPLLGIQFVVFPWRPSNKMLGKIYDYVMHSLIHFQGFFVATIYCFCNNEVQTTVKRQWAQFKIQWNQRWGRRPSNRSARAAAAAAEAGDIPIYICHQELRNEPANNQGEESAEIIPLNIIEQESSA
T1 sequence (O60896 24-148 partner): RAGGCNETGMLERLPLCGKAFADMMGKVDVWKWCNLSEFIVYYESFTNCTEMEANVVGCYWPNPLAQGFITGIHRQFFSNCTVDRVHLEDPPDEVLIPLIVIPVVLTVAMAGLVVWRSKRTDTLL
Summary of the method: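 Accumulated cAMP was detected by time-resolved FRET one hour after reagent addition. Beforehand, hAMY3-R-overexpressing monoclonal cells (2000/well, DPBS, 0.05% casein, 0.5 mM IBMX) received graded doses of compound for 30 min at room temperature; human amylin served as positive control.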

hAM1 receptor = hAM1 receptor (Homo sapiens, UniProt O60895+Q16602); assay: cAMP assay for in vitro receptor activation, hAM1-R; format: cell-based; conditions: cAMP assay, hAM1 receptor; read-out: hAM1R EC50
Summary of the method: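 A subcloned monoclonal line stably expressing hAM1 receptor is thawed and plated at 8000 cells/well. The assay buffer is DPBS with 0.05% casein and 0.5 mM IBMX, and receptor activation is followed by cAMP levels.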

Chain of hAM1 receptor (Q16602 23-461): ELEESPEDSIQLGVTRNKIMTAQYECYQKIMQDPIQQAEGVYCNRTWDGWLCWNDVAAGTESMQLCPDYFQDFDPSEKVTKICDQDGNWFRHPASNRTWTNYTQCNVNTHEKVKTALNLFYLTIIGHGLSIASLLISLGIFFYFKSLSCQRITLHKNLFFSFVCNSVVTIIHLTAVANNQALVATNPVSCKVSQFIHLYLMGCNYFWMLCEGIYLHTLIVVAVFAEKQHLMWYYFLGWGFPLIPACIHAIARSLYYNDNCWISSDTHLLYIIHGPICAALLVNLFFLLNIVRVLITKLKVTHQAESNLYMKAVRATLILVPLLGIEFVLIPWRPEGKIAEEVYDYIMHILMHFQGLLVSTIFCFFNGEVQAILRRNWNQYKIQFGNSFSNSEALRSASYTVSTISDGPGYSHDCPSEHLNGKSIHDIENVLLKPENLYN
Chain of hAM1 receptor (O60895 43-175 partner): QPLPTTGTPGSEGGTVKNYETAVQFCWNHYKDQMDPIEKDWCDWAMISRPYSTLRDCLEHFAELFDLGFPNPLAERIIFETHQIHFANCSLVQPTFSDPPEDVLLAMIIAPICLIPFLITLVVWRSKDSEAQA

| Compound | EC50 (hAMY3 receptor) [nM] | EC50 (hAM1 receptor) [nM] |
| --- | --- | --- |
| CC[C@H](C)[C@H](NC(=O)[C@H](CCC(N)=O)NC(=O)[C@H](CCC(=O)O)NC(=O)[C@H](C)NC(=O)[C@H](CC(C)C)NC(=O)[C@H](CCCNC(=N)N)NC(=O)[C@H](CCC(N)=O)NC(=O)[C@@H](NC(=O)[C@@H](NC(=O)[C@@H]1CSSC[C@H](NC(=O)[C@H](CCCCN)NC(=O)CC[C@H](NC(=O)CCCCCCCCCCCCCCCCCCC(=O)O)C(=O)O)C(=O)N[C@@H](CC(N)=O)C(=O)N[C@@H]([C@@H](C)O)C(=O)N[C@@H](C)C(=O)N[C@@H]([C@@H](C)O)C(=O)N1)[C@@H](C)O)C(C)C)C(=O)N[C@@H](Cc1ccc(O)cc1)C(=O)N[C@@H](CCC(N)=O)C(=O)N[C@@H](Cc1ccccc1)C(=O)N[C@H](C(=O)N[C@@H](CC(=O)O)C(=O)N[C@@H](CCCCN)C(=O)N[C@@H](CC(=O)O)C(=O)N[C@@H](CCCCN)C(=O)N[C@@H](C)C(=O)N[C@@H](CC(N)=O)C(=O)N[C@H](C(=O)N[C@@H](C)C(=O)N1CCC[C@H]1C(=O)N1CCC[C@H]1C(=O)N[C@H](C(=O)N[C@@H](CC(N)=O)C(=O)N[C@H](C(=O)NCC(=O)N[C@@H](CO)C(=O)N[C@@H](CC(N)=O)C(=O)NCC(=O)N1C[C@H](O)C[C@H]1C(N)=O)C(C)C)[C@@H](C)O)C(C)C)[C@@H](C)O [compound 108] ({C20 diacid-γGlu}-KCNTATCTVQRLAEQIYQFTDKDKANVAPPTNVGSNG[Hyp]-NH2; disulfide 2-7) | 0.019 | > 5000 |
| CC[C@H](C)[C@H](NC(=O)[C@H](C)NC(=O)CNC(=O)[C@H](Cc1ccccc1)NC(=O)[C@H](CC(N)=O)NC(=O)[C@H](CC(N)=O)NC(=O)[C@H](CO)NC(=O)[C@H](CO)NC(=O)[C@H](Cc1c[nH]cn1)NC(=O)[C@@H](NC(=O)[C@H](CC(C)C)NC(=O)[C@H](Cc1ccccc1)NC(=O)[C@H](CC(N)=O)NC(=O)[C@H](C)NC(=O)[C@H](CC(C)C)NC(=O)[C@H](CCCNC(=N)N)NC(=O)[C@H](CCC(N)=O)NC(=O)[C@@H](NC(=O)[C@H](C)NC(=O)[C@@H]1CSSC[C@H](NC(=O)[C@@H](N)CCCCN)C(=O)N[C@@H](CC(N)=O)C(=O)N[C@@H]([C@@H](C)O)C(=O)N[C@@H](C)C(=O)N[C@@H]([C@@H](C)O)C(=O)N1)[C@@H](C)O)C(C)C)C(=O)N[C@@H](CC(C)C)C(=O)N1CCC[C@H]1C(=O)N[C@@H](CO)C(=O)N[C@H](C(=O)N[C@@H](CCCCN)C(=O)N[C@H](C(=O)NCC(=O)N[C@@H](CO)C(=O)N[C@@H](CC(N)=O)C(=O)N[C@H](C(=O)N[C@@H](Cc1ccc(O)cc1)C(N)=O)[C@@H](C)O)[C@@H](C)CC)[C@@H](C)O [compound 180] (H-KCNTATCATQRLANFLVHSSNNFGAILPSTKIGSNTY-NH2; disulfide 2-7; N-terminus assumed) | 0.082 | > 5000 |
| CC[C@H](C)[C@H](NC(=O)[C@H](CCC(N)=O)NC(=O)[C@H](CCC(=O)O)NC(=O)[C@H](C)NC(=O)[C@H](CC(C)C)NC(=O)[C@H](CCCNC(=N)N)NC(=O)[C@H](CCC(N)=O)NC(=O)[C@@H](NC(=O)[C@@H](NC(=O)[C@@H]1CSSC[C@H](NC(=O)[C@@H](N)CCCCN)C(=O)N[C@@H](CC(N)=O)C(=O)N[C@@H](C)C(=O)N[C@@H](C)C(=O)N[C@@H]([C@@H](C)O)C(=O)N1)[C@@H](C)O)C(C)C)C(=O)N[C@@H](Cc1ccc(O)cc1)C(=O)N[C@@H](CCC(N)=O)C(=O)N[C@@H](Cc1ccccc1)C(=O)N[C@H](C(=O)N[C@@H](CC(=O)O)C(=O)N[C@@H](CCCCN)C(=O)N[C@@H](CC(=O)O)C(=O)N[C@@H](CCCCN)C(=O)N[C@@H](CC(=O)O)C(=O)N[C@@H](CC(N)=O)C(=O)N[C@H](C(=O)N[C@@H](C)C(=O)N1CCC[C@H]1C(=O)N1CCC[C@H]1C(=O)N[C@H](C(=O)N[C@@H](CC(N)=O)C(=O)N[C@H](C(=O)NCC(=O)N[C@@H](CO)C(=O)N[C@@H](CC(N)=O)C(=O)NCC(=O)N1C[C@H](O)C[C@H]1C(N)=O)C(C)C)[C@@H](C)O)C(C)C)[C@@H](C)O [compound 101] (H-KCNAATCTVQRLAEQIYQFTDKDKDNVAPPTNVGSNG[Hyp]-NH2; disulfide 2-7; N-terminus assumed) | 0.017 | > 5000 |

— patent publication US12139520B2 (priority 2020, dated 2024)
